Results taken from patent publication US7820825B2, “N-substituted-azacyclylamines as histamine-3 antagonists” (Wyeth LLC, priority 2006, dated 2010).

SMILES	melting point [°C]
Cn1cc(Cc2ccc(C(=O)N3CC[C@H](N4CCCC4)C3)cc2)c2ccccc21 [Example 229, (3′S)-1-{4-[(1-methyl-1H-indol-3-yl)methyl]benzoyl}-1,3′-bipyrrolidine]	73 to 78
CN(C)[C@H]1CCN(C(=O)c2ccc(Cc3cn(C)c4ccccc34)cc2)C1 [Example 230, (3S)-N,N-dimethyl-1-{4-[(1-methyl-1H-indol-3-yl)methyl]benzoyl}pyrrolidin-3-amine]	101 to 105
